One experiment relates to HCT116-WT cells. Put plainly: Inhibitory activity against cell proliferation (CellTiter Glo, 6 days), HCT116-WT. In kind it is cell-based. Conditions: HCT116-WT cells, 6 days, CellTiter Glo, read-out: HCT116-WT IC50. How it is done: HCT116-WT (ATCC, CCL-247) and HCT116 MTAP KO (Nanjing Cobioer, CBP75002) cells were seeded into white low-transparency sterile 96-well cell culture plates at a density of 250 cells per well respectively, and the culture medium was McCoy's 5A Medium+10% FBS. The plates were placed under the condition of 37°C and 5% CO2 to be cultured overnight. The cells were treated with 4-fold serially diluted compounds of 8 concentration points starting at an initial concentration of 10000 nM, and the last two columns were used as control wells to which only DMSO was added. The drug-treated cells were further cultured for 6 days. On day 7, CellTiter Glo® reagent was added at 50 uL per well, and after reaction under shaking for 10 minutes at room temperature, the chemiluminescence signals were detected for the well plates through the chemiluminescence detection method using a BIOTEK H1 multifunctional microplate-reader. The IC50 values for inhibition of the compounds on cell viability were calculated in X1fit 5.0 software. Table 2. IC50 values for inhibition of the compounds on HCT116 MTAP KO/WT cell growth

The subject of the next experiment is HCT116 MTAP KO cells. Put plainly: Inhibitory activity against cell proliferation (CellTiter Glo, 6 days), HCT116 MTAP KO. Conditions: for IC50: HCT116 MTAP KO cells, 6 days, CellTiter Glo, read-out: HCT116 MTAP KO IC50; for Selectivity HCT 116-WT/ HCT116 MTAP KO: ratio of IC50 HCT116-WT / HCT116 MTAP KO. The class given is cell-based. Summed up:
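Luminescence read-out (CellTiter Glo, 10 min shaking at room temperature) after 6 days of compound exposure; IC50 fitted against DMSO controls. Top dose 10000 nM, 4-fold steps, 8 points; 250 cells/well in McCoy's 5A + 10% FBS.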

Where two headings read alike, the source gives them in different places.

As for `Cc1cc2cc(C(=O)N(Cc3ccc(-c4ccc(=O)[nH]c4)cn3)N(C)c3ncccn3)ccc2nc1N` [Example 143, 2-amino-N',3-dimethyl-N-((6'-oxo-1',6'-dihydro-[3,3'-bipyridine]-6-yl)methyl)-N'-(pyrimidin-2-yl)quinoline-6-carbohydrazide], the IC50 with HCT116-WT cells (144 h) worked out at 3360 nM; with HCT116 MTAP KO cells (Homo sapiens, HCT-116, 144 h) it was 192 nM. Also, in the experiment on HCT116 MTAP KO cells, the “Selectivity HCT 116-WT/ HCT116 MTAP KO” value turned out to be 17.49.
Regarding `[2H]C([2H])([2H])c1cc2cc(C(=O)N(Cc3ccc(C(F)(F)F)cn3)Nc3ncccn3)ccc2nc1N` [Example 312, 2-amino-3-(methyl-D3)-N'-(pyrimidin-2-yl)-N-((5-(trifluoromethyl)pyridin-2-yl)methyl)quinoline-6-carbohydrazide], the IC50 in the experiment on HCT116-WT cells (144 h) came out at 3040 nM; with HCT116 MTAP KO cells (Homo sapiens, HCT-116, 144 h) it was 94 nM. In the experiment with HCT116 MTAP KO cells, the “Selectivity HCT 116-WT/ HCT116 MTAP KO” value worked out at 32.33.
Take `COC1(C)CN(C(=O)c2cc3c(cc2C)nc(N)c2cnn(C)c23)N(c2ncccc2F)C1` (stereo not drawn) [Example 428, (4-amino-1,7-dimethyl-1H-pyrazolo[4,3-c]quinolin-8-yl)(2-(3-fluoropyridin-2-yl)-4-methoxy-4-methylpyrazolin-1-yl)methanone]: the IC50 in the experiment on HCT116-WT cells (144 h) is 321 nM; with HCT116 MTAP KO cells (Homo sapiens, HCT-116, 144 h), 12 nM. The “Selectivity HCT 116-WT/ HCT116 MTAP KO” value with HCT116 MTAP KO cells came out at 26.75.
Regarding `Cc1cc2cc(C(=O)N(Cc3ccc(-c4cnc5c(cnn5C)c4)cn3)N(C)c3ncccn3)ccc2nc1N` [Example 190, 2-amino-N',3-dimethyl-N-((5-(1-methyl-1H-pyrazolo[3,4-b]pyridin-5-yl)pyridin-2-yl)methyl)-N'-(pyrimidin-2-yl)quinoline-6-carbohydrazide], the IC50 in the experiment on HCT116-WT cells (144 h) stood at 835 nM; with HCT116 MTAP KO cells (Homo sapiens, HCT-116, 144 h), 32 nM. For the same compound, the “Selectivity HCT 116-WT/ HCT116 MTAP KO” value in the experiment on HCT116 MTAP KO cells came to 26.09.
With `Cc1cc2nc(N)c3cnn(C)c3c2cc1C(=O)N1CC(O)(C(F)(F)F)CN1c1ncccc1F` (stereo not drawn) [Example 355, (4-amino-1,7-dimethyl-1H-pyrazolo[4,3-c]quinolin-8-yl)(2-(3-fluoropyridin-2-yl)-4-hydroxy-4-(trifluoromethyl)pyrazolidin-1-yl)methanone], the IC50 in the experiment with HCT116-WT cells (144 h) stood at 4800 nM; in the experiment on HCT116 MTAP KO cells (Homo sapiens, HCT-116, 144 h), 150 nM. The “Selectivity HCT 116-WT/ HCT116 MTAP KO” value in the experiment with HCT116 MTAP KO cells worked out at 32.00.
Take `Cc1cc2cc(C(=O)N(Cc3ccc(-c4cncs4)cn3)N(C)c3ncccn3)ccc2nc1N` [Example 204, 2-amino-N',3-dimethyl-N'-(pyrimidin-2-yl)-N-((5-(thiazol-5-yl)pyridin-2-yl)methyl)quinoline-6-carbohydrazide]: the IC50 amounted to 396 nM with HCT116-WT cells (144 h) and 14 nM with HCT116 MTAP KO cells (Homo sapiens, HCT-116, 144 h). Besides, the “Selectivity HCT 116-WT/ HCT116 MTAP KO” value in the experiment with HCT116 MTAP KO cells is 28.29.
Consider `Cc1cc2cc(C(=O)N(Cc3ccc(-c4ccc(N(C)C)nc4)cn3)N(C)c3ncccn3)ccc2nc1N` [Example 212, 2-amino-N-((6'-(dimethylamino)-[3,3'-bipyridine]-6-yl)methyl)-N',3-dimethyl-N'-(pyrimidin-2-yl)quinoline-6-carbohydrazide], for which the IC50 with HCT116-WT cells (144 h) is 646 nM; with HCT116 MTAP KO cells (Homo sapiens, HCT-116, 144 h) it was 30 nM. Moreover, the “Selectivity HCT 116-WT/ HCT116 MTAP KO” value in the experiment on HCT116 MTAP KO cells is 21.53.
In the case of `Cc1cc2nc(N)c3cnn(C)c3c2cc1C(=O)N1CC(C)CN1c1ncc(Cl)cc1F` (stereo not drawn) [Example 394, (4-amino-1,7-dimethyl-1H-pyrazolo[4,3-c]quinolin-8-yl)(2-(5-chloro-3-fluoropyridin-2-yl)-4-methylpyrazolidin-1-yl)metha none], the IC50 in the experiment with HCT116-WT cells (144 h) amounted to 717 nM; with HCT116 MTAP KO cells (Homo sapiens, HCT-116, 144 h), 16 nM. In addition, the “Selectivity HCT 116-WT/ HCT116 MTAP KO” value in the experiment with HCT116 MTAP KO cells worked out at 44.81.
For `Cc1cc2cc(C(=O)N(Cc3ccc(I)cn3)N(C)c3ncccn3)ccc2nc1N` [Example 263, 2-amino-N-((5-iodopyridin-2-yl)methyl)-N',3-dimethyl-N'-(pyrimidin-2-yl)quinoline-6-carbohydrazide], the IC50 in the experiment on HCT116-WT cells (144 h) is 404 nM; in the experiment on HCT116 MTAP KO cells (Homo sapiens, HCT-116, 144 h) it was 17 nM. Moreover, the “Selectivity HCT 116-WT/ HCT116 MTAP KO” value in the experiment with HCT116 MTAP KO cells is 23.76.
For the compound `Cc1cc2cc(C(=O)N(Cc3ccc(-c4ccns4)cn3)N(C)c3ncccn3)ccc2nc1N` [Example 210, 2-amino-N-((5-(isothiazol-5-yl)pyridin-2-yl)methyl)-N',3-dimethyl-N'-(pyrimidin-2-yl)quinoline-6-carbohydrazide], the IC50 with HCT116-WT cells (144 h) worked out at 492 nM; in the experiment with HCT116 MTAP KO cells (Homo sapiens, HCT-116, 144 h), 25 nM. In addition, the “Selectivity HCT 116-WT/ HCT116 MTAP KO” value with HCT116 MTAP KO cells was 19.68.
Take `Cc1cc2cc(C(=O)N(Cc3ccc(-c4nnn(C)n4)cn3)N(C)c3ncccn3)ccc2nc1N` [Example 231, 2-amino-N',3-dimethyl-N-((5-(2-methyl-2H-tetrazol-5-yl)pyridin-2-yl)methyl)-N'-(pyrimidin-2-yl)quinoline-6-carbohydrazide]: the IC50 was determined as 2700 nM in the experiment with HCT116-WT cells (144 h) and 212 nM in the experiment with HCT116 MTAP KO cells (Homo sapiens, HCT-116, 144 h). Further, in the experiment on HCT116 MTAP KO cells, the “Selectivity HCT 116-WT/ HCT116 MTAP KO” value was 12.71.
`Cc1cc2cc(C(=O)N(Cc3ccc(-c4ccc(N(C)CCN(C)C)nc4)cn3)N(C)c3ncccn3)ccc2nc1N` [Example 260, 2-amino-N-((6'-((2-(dimethylamino)ethyl)(methyl)amino)-[3,3'-bipyridine]-6-yl)methyl) -N', 3-dimethyl-N'-(pyrimidin-2-yl)quinoline-6-carbohydrazide]: the IC50 with HCT116-WT cells (144 h) came to 465 nM; in the experiment with HCT116 MTAP KO cells (Homo sapiens, HCT-116, 144 h) it was 21 nM. Moreover, in the experiment with HCT116 MTAP KO cells, the “Selectivity HCT 116-WT/ HCT116 MTAP KO” value is recorded as 22.14.
For the compound `Cc1cc2nc(N)c3cnn(C)c3c2cc1C(=O)N1C(C)CCN1c1ncccc1F` (stereo not drawn) [Example 376, (4-amino-1,7-dimethyl-1H-pyrazolo[4,3-c]quinolin-8-yl)(2-(3-fluoropyridin-2-yl)-5-methylpyrazolidin-1-yl)methanone], the IC50 in the experiment with HCT116-WT cells was found to be 3720 nM; in the experiment with HCT116 MTAP KO cells it was 105 nM. The “Selectivity HCT 116-WT/ HCT116 MTAP KO” value with HCT116 MTAP KO cells is reported as 35.48.
For the compound `CN(c1ccccc1F)N(Cc1ccc(C(F)(F)F)cn1)C(=O)c1ccc2nc(N)c3cnn(C)c3c2c1` [Example 281, 4-amino-N'-(2-fluorophenyl)-N',1-dimethyl-N-((5-(trifluoromethyl)pyridin-2-yl)methyl)-1H-pyrazolo[4,3-c]quinoline-8-carb ohydrazide], the IC50 in the experiment on HCT116-WT cells (144 h) was 42 nM; in the experiment with HCT116 MTAP KO cells (Homo sapiens, HCT-116, 144 h) it was 3.3 nM. In addition, the “Selectivity HCT 116-WT/ HCT116 MTAP KO” value with HCT116 MTAP KO cells was determined as 12.73.
For `COCCN(C)c1ccc(-c2ccc(CN(C(=O)c3ccc4nc(N)c(C)cc4c3)N(C)c3ncccn3)nc2)cn1` [Example 254, 2-amino-N-((6'-((2-methoxyethyl)(methyl)amino)-[3,3'-bipyridine]-6-yl)methyl)-N',3-d imethyl-N'-(pyrimidin-2-yl)quinoline-6-carbohydrazide], the IC50 with HCT116-WT cells (144 h) stood at 503 nM; in the experiment on HCT116 MTAP KO cells (Homo sapiens, HCT-116, 144 h), 42 nM. Further, the “Selectivity HCT 116-WT/ HCT116 MTAP KO” value in the experiment with HCT116 MTAP KO cells worked out at 11.98.
On the same counts, the results for `Cc1cc2cc(C(=O)N(Cc3ccc(-c4cnn(C(F)(F)F)c4)cn3)N(C)c3ncccc3F)ccc2nc1N` [Example 170, 2-amino-N'-(3-fluoropyridin-2-yl)-N ',3-dimethyl-N-((5-(1-(trifluoromethyl)-1 H-pyrazol-4-yl)pyridin-2-yl)methyl)quin oline-6-carbohydrazide] are 640 nM, 35 nM and 18.29.
Turning to `Cc1cc2cc(C(=O)N(Cc3ccc(-c4ccc(N5CCN(C)C(=O)C5)nc4)cn3)N(C)c3ncccn3)ccc2nc1N` [Example 258, 2-amino-N',3-dimethyl-N-((6'-(4-methyl-3-oxopiperazin-1-yl)-[3,3'-bipyridin]-6-yl)methyl)-N'-(pyrimidin-2-yl)quinoline-6-carbohydrazide], the IC50 in the experiment on HCT116-WT cells (144 h) worked out at 716 nM; in the experiment with HCT116 MTAP KO cells (Homo sapiens, HCT-116, 144 h) it was 31 nM. Besides, the “Selectivity HCT 116-WT/ HCT116 MTAP KO” value in the experiment with HCT116 MTAP KO cells came out at 23.10.
Consider `CN(c1ncccn1)N(Cc1ccc(-c2cnn(C(F)(F)F)c2)cn1)C(=O)c1ccc2nc(N)c3cnn(C)c3c2c1` [Example 248, 4-amino-N',1-dimethyl-N'-(pyrimidin-2-yl)-N-((5-(1-(trifluoromethyl)-1H-pyrazol-4-yl)pyridin-2-yl)methyl)-1H-pyrazolo[4,3-c]quinoline-8-carbohydrazide], for which the IC50 with HCT116-WT cells (144 h) was 63 nM; in the experiment with HCT116 MTAP KO cells (Homo sapiens, HCT-116, 144 h) it was 3.9 nM. Moreover, the “Selectivity HCT 116-WT/ HCT116 MTAP KO” value in the experiment on HCT116 MTAP KO cells is on record as 16.15.
`Cn1ncc2c(N)nc3cc(Cl)c(C(=O)N4CC(C)(F)CN4c4cccc(F)n4)cc3c21` (stereo not drawn) [Example 426, (4-amino-7-chloro-1-methyl-1H-pyrazolo [4,3-c]quinolin-8-yl)(4-fluoro-2-(6-fluoropyridin-2-yl)-4-methylpyrazolidin-1-yl)m ethanone]: the IC50 in the experiment with HCT116-WT cells (144 h) came to 700 nM; in the experiment on HCT116 MTAP KO cells (Homo sapiens, HCT-116, 144 h) it was 49 nM. For the same compound, the “Selectivity HCT 116-WT/ HCT116 MTAP KO” value in the experiment with HCT116 MTAP KO cells is listed as 14.29.
As for `Cc1cc2cc(C(=O)N(Cc3ccc(-c4ccc(N(C)CCO)nc4)cn3)N(C)c3ncccn3)ccc2nc1N` [Example 246, 2-amino-N-((6'-((2-hydroxyethyl) (methyl)amino)-[3,3'-bipyridine]-6-yl)methyl)-N',3-dimethyl-N'-(pyrimidin-2-yl)quinoline-6-carbohydrazide], the IC50 in the experiment with HCT116-WT cells (144 h) came to 482 nM; in the experiment with HCT116 MTAP KO cells (Homo sapiens, HCT-116, 144 h) it was 18 nM. Also, in the experiment with HCT116 MTAP KO cells, the “Selectivity HCT 116-WT/ HCT116 MTAP KO” value was 26.78.

For the origin of these results see patent EP4745134A1 (Jiangsu Yahong Meditech Co., Ltd., priority 2023, dated 2025).
